The values below come from patent US4677126A, “Oxa-fenchyl esters and amides of alpha-L-aspartyl-D-phenylglycine” (The Procter & Gamble Company, priority 1986, dated 1987).

Square brackets hold non-standard residues; d marks the D form. Peptide text beside a SMILES is read from it. Phg = N[C@H](C(=O)O)c1ccccc1

The nature of one data set: Sweetness intensity relative to sucrose, taste panel. The note with it: based on informal panel testing. Type of data set: in vivo, human. An excerpt: The sweetness intensity of the esters and amides of the present invention relative to sucrose can be determined according to the following procedure:
Male subjects are chosen at random from a group of about 20 persons who have previously been selected on the basis of proven tasting acuity, i.e., persons who could easily recognize the four basic tastes (sweet, sour, bitter and salty) and who are adept at quantifying their own physiological response numerically. The subjects are asked to taste and expectorate about 10 ml of a test sample (temperature of about 22° C.) having dissolved therein the ester or amide. […] Sweetness intensity of the test sample is recorded by the subject making a mark on the linear scale at a point they consider equal in sweetness among the standard samples; interpolation between standards is encouraged. After completion of the panel, a five point numeric scale is superimposed on the linear scales to obtain numerical data; data is averaged and recorded to the nearest 0.25 unit. Equivalent sucrose sweetness is determined by referring to graphs of (w/v) sucrose concentration in the standard samples versus a linear numeric scale.
Sweetness intensity is calculated by dividing the concentration (w/v) of perceived sweetness by the concentration (w/v) of the ester or amide required to produce that sweetness. […]
With `CC12CCC(O1)C(C)(C)C2OC(=O)[C@H](NC(=O)[C@@H](N)CC(=O)O)c1ccccc1` (stereo partly drawn) [Example 2, alpha-L-Aspartyl-D-phenylglycine-alpha-7-oxa-fenchyl ester], the “Sweetness (× Sucrose)” value stood at 1000 × Sucrose.

The same data set, now with this note: based on informal panel testing; isolated diastereomer.
In the case of `CC12CCC(O1)C(C)(C)C2OC(=O)[C@H](NC(=O)[C@@H](N)CC(=O)O)c1ccccc1` (stereo partly drawn) [Example 2, alpha-L-Aspartyl-D-phenylglycine-alpha-7-oxa-fenchyl ester], the Sweetness intensity entry was “approximately 1000 X”.

Test in a further data set: not given
The note with it: literature / prior patents; cited from earlier work.
On to `C[C@@H](NC(=O)[C@@H](N)CC(=O)O)C(=O)NC1C(C)(C)S(=O)(=O)C1(C)C`, for which the “sweetness intensity, times that of sucrose” value is listed as 1000 times that of sucrose.

For the compound `C[C@@H](NC(=O)[C@@H](N)CC(=O)O)C(=O)NC1C(C)(C)SC1(C)C` [2,2,4,4-tetramethylthietan-3-yl], the “sweetness intensity, times that of sucrose” value is reported as 2000 times that of sucrose.

On to `CC1CCC(C)C1NC(=O)[C@@H](C)NC(=O)[C@@H](N)CC(=O)O` (stereo partly drawn) [2,5 dimethylcyclopentyl], for which the “sweetness intensity, times that of sucrose” value was 520 times that of sucrose.

In the case of `CC1CCCC(C)C1NC(=O)[C@@H](C)NC(=O)[C@@H](N)CC(=O)O` (stereo partly drawn) [2,6-dimethylcyclohexyl], the “sweetness intensity, times that of sucrose” value is 600 times that of sucrose.

In the case of `O=C1NS(=O)(=O)c2ccccc21` [Saccharin], the “sweetness intensity, times that of sucrose” value was “about 300 times that of sucrose” and the “taste quality” value was “lingering bitter aftertaste”.

As to `COC(=O)[C@H](Cc1ccccc1)NC(=O)[C@@H](N)CC(=O)O` [aspartame, alpha-L-aspartyl-L-phenylalanine methyl ester] (H-Asp-Phe-OMe), the “sweetness intensity, times that of sucrose” value is 150-200 times that of sucrose and the “taste quality” value is on record as “approaching that of sucrose”.

On to `C[C@@H](NC(=O)[C@@H](N)CC(=O)O)C(=O)NC(C1CC1)C1CC1` [dicyclopropylcarbinyl], for which the “sweetness intensity, times that of sucrose” value is 1200 times that of sucrose.

For the compound `CCOC(=O)C(NC(=O)[C@@H](N)CC(=O)O)C(=O)OC1C2(C)CCC(C2)C1(C)C` (stereo partly drawn) [ethyl], the “sweetness intensity, times that of sucrose” value is 4200-5400 times that of sucrose.

In the case of `C[C@@H](NC(=O)[C@@H](N)CC(=O)O)C(=O)NC1C2(C)CCC(C2)C1(C)C` (stereo partly drawn) [fenchyl], the “sweetness intensity, times that of sucrose” value is reported as 320 times that of sucrose.

Regarding `COC(=O)[C@@H](Cc1ccccc1)NC(=O)[C@@H](N)CC(=O)O` [methyl ester of L-aspartyl-D-phenylalanine] (H-Asp-[dF]-OMe), the “taste quality” value is listed as “bitter”.

Turning to `COC(=O)[C@@H](NC(=O)[C@@H](N)CC(=O)O)c1ccccc1` [methyl ester of L-aspartyl-L-phenylglycine] (H-Asp-[Phg]-OMe), the “sweetness intensity, times that of sucrose” value is on record as 100-1000 times that of sucrose and the “taste quality” value is on record as “quite sweet”.

Take `COC(=O)C(NC(=O)[C@@H](N)CC(=O)O)C(=O)OC1C2(C)CCC(C2)C1(C)C` (stereo partly drawn) [methyl]: the “sweetness intensity, times that of sucrose” value is 22,200-33,200 times that of sucrose.

Test in another data set: not given
The note with it: most carbonated beverages, pH about 2.5 to about 4.8; cited from earlier work.
`COC(=O)[C@H](Cc1ccccc1)NC(=O)[C@@H](N)CC(=O)O` [aspartame, alpha-L-aspartyl-L-phenylalanine methyl ester] (H-Asp-Phe-OMe): the “hydrolytic stability in carbonated beverages” value is recorded as “hydrolytically unstable”.
